Experimental data as given in the supplement of paper PMC6045584.
± gives the standard deviation of the averaged measurements.

What follows are test systems tested with C=CCNC1=C2C[C@@H](C)C[C@H](OC)[C@H](O)[C@@H](C)/C=C(\C)[C@H](OC(N)=O)[C@@H](OC)/C=C\C=C(/C)C(=O)NC(=CC1=O)C2=O [17-AAG] (assay: surviving fraction relative to DMSO-only wells; higher = less growth inhibition). Settings: 0.5 nM; exposure time: 5 days.
Outline: (§1)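 At 250–500 cells per well in 384-well plates, log-phase tumour cell lines were seeded and, 24 hours on, exposed continuously for five days to inhibitors at 0.5, 1, 5, 10, 50, 100, 500 and 1000 nM. Viability readout was CellTiter-Glo luminescence, reported as surviving fraction normalised to the median of DMSO-only wells.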
HMLE3 BREAST showed a surviving fraction of 0.875 ± 0.029.
Test System HS578T BREAST has a surviving fraction of 0.904 ± 0.057.
HMT3552 BREAST was tested, and the surviving fraction was 0.913.
HCC38 BREAST showed a surviving fraction of 0.802 ± 0.19.
HS57T BREAST was tested, and the surviving fraction was 0.973 ± 0.08.
G292 BONE showed a surviving fraction of 0.928 ± 0.035.
HCC70 BREAST showed a surviving fraction of 1.01 ± 0.09.

Same assay, conditions: 1 nM; exposure time: 5 days
Work on HMLE3 BREAST yielded a surviving fraction of 0.889 ± 0.079.
Test System HS578T BREAST has a surviving fraction of 0.928 ± 0.033.
With HMT3552 BREAST the surviving fraction was 0.915.
HCC38 BREAST showed a surviving fraction of 0.906 ± 0.26.
Work on HS57T BREAST yielded a surviving fraction of 0.919 ± 0.025.
G292 BONE was tested, and the surviving fraction was 0.934 ± 0.031.
Work on HCC70 BREAST yielded a surviving fraction of 0.971 ± 0.066.

Same assay, conditions: 5 nM; exposure time: 5 days
For HMLE3 BREAST, the surviving fraction was 0.973 ± 0.037.
Test System HS578T BREAST has a surviving fraction of 0.525 ± 0.1.
HMT3552 BREAST was tested, and the surviving fraction was 1.15.
HCC38 BREAST was tested, and the surviving fraction was 0.293 ± 0.082.
With HS57T BREAST the surviving fraction was 0.699 ± 0.064.
Test System G292 BONE has a surviving fraction of 0.956 ± 0.052.
HCC70 BREAST gave a surviving fraction of 1.01 ± 0.046.

Same assay, conditions: 10 nM; exposure time: 5 days
HMLE3 BREAST was tested, and the surviving fraction was 0.925 ± 0.062.
In the case of HS578T BREAST, the surviving fraction is reported as 0.409 ± 0.051.
Work on HMT3552 BREAST yielded a surviving fraction of 0.904.
HCC38 BREAST gave a surviving fraction of 0.185 ± 0.067.
Test System HS57T BREAST has a surviving fraction of 0.263 ± 0.032.
Work on G292 BONE yielded a surviving fraction of 0.792 ± 0.018.
Test System HCC70 BREAST has a surviving fraction of 0.804 ± 0.0083.

Same assay, conditions: 50 nM; exposure time: 5 days
HMLE3 BREAST showed a surviving fraction of 0.0453 ± 0.0025.
Test System HS578T BREAST has a surviving fraction of 0.281 ± 0.049.
HMT3552 BREAST was tested, and the surviving fraction was 0.087.
Work on HCC38 BREAST yielded a surviving fraction of 0.0753 ± 0.022.
HS57T BREAST was tested, and the surviving fraction was 0.134 ± 0.011.
G292 BONE showed a surviving fraction of 0.295 ± 0.018.
HCC70 BREAST was tested, and the surviving fraction was 0.091 ± 0.017.

Same assay, conditions: 100 nM; exposure time: 5 days
HMLE3 BREAST was tested, and the surviving fraction was 0.0247 ± 0.0011.
HS578T BREAST gave a surviving fraction of 0.234 ± 0.022.
HMT3552 BREAST showed a surviving fraction of 0.064.
In the case of HCC38 BREAST, the surviving fraction is reported as 0.0727 ± 0.0085.
Work on HS57T BREAST yielded a surviving fraction of 0.126 ± 0.0038.
Test System G292 BONE has a surviving fraction of 0.266 ± 0.0069.
Work on HCC70 BREAST yielded a surviving fraction of 0.0907 ± 0.012.

Same assay, conditions: 500 nM; exposure time: 5 days
HMLE3 BREAST gave a surviving fraction of 0.021 ± 0.002.
For HS578T BREAST, the surviving fraction was 0.213 ± 0.026.
Test System HMT3552 BREAST has a surviving fraction of 0.056.
For HCC38 BREAST, the surviving fraction was 0.059 ± 0.0092.
Work on HS57T BREAST yielded a surviving fraction of 0.105 ± 0.0035.
G292 BONE showed a surviving fraction of 0.0898 ± 0.01.
HCC70 BREAST gave a surviving fraction of 0.073 ± 0.017.

Same assay, conditions: 1000 nM; exposure time: 5 days
In the case of HMLE3 BREAST, the surviving fraction is reported as 0.024 ± 0.001.
In the case of HS578T BREAST, the surviving fraction is reported as 0.222 ± 0.026.
HMT3552 BREAST gave a surviving fraction of 0.062.
HCC38 BREAST was tested, and the surviving fraction was 0.0613 ± 0.0025.
HS57T BREAST gave a surviving fraction of 0.106 ± 0.0049.
G292 BONE was tested, and the surviving fraction was 0.087 ± 0.004.
For HCC70 BREAST, the surviving fraction was 0.0667 ± 0.0091.

The test systems below were run with CS(=O)(=O)CCNCc1ccc(-c2ccc3ncnc(Nc4ccc(OCc5cccc(F)c5)c(Cl)c4)c3c2)o1 [LAPATINIB] in the same assay as above. Settings: 0.5 nM; exposure time: 5 days.
Outline: as §1
For HMLE3 BREAST, the surviving fraction was 1.04 ± 0.1.
HS578T BREAST was tested, and the surviving fraction was 1.19 ± 0.11.
In the case of HMT3552 BREAST, the surviving fraction is reported as 1.03 ± 0.033.
CCK81 LARGE INTESTINE gave a surviving fraction of 0.728 ± 0.083.
With HCC38 BREAST the surviving fraction was 1.03 ± 0.17.
Work on HS57T BREAST yielded a surviving fraction of 0.975 ± 0.054.
G292 BONE gave a surviving fraction of 0.973 ± 0.011.
HCC70 BREAST was tested, and the surviving fraction was 1.05 ± 0.075.

Same assay, conditions: 1 nM; exposure time: 5 days
HMLE3 BREAST was tested, and the surviving fraction was 1.09 ± 0.074.
Work on HS578T BREAST yielded a surviving fraction of 1.03 ± 0.045.
HMT3552 BREAST was tested, and the surviving fraction was 1.02 ± 0.073.
In the case of CCK81 LARGE INTESTINE, the surviving fraction is reported as 0.751 ± 0.054.
HCC38 BREAST showed a surviving fraction of 0.933 ± 0.042.
Work on HS57T BREAST yielded a surviving fraction of 1 ± 0.022.
For G292 BONE, the surviving fraction was 1.02 ± 0.052.
For HCC70 BREAST, the surviving fraction was 1.1 ± 0.076.

Same assay, conditions: 5 nM; exposure time: 5 days
Test System HMLE3 BREAST has a surviving fraction of 1.05 ± 0.065.
HS578T BREAST showed a surviving fraction of 1.11 ± 0.15.
With HMT3552 BREAST the surviving fraction was 1.06 ± 0.026.
CCK81 LARGE INTESTINE showed a surviving fraction of 0.826 ± 0.17.
For HCC38 BREAST, the surviving fraction was 1 ± 0.35.
Work on HS57T BREAST yielded a surviving fraction of 1.07 ± 0.074.
Test System G292 BONE has a surviving fraction of 1.03 ± 0.022.
HCC70 BREAST gave a surviving fraction of 1.16 ± 0.069.

Same assay, conditions: 10 nM; exposure time: 5 days
HMLE3 BREAST gave a surviving fraction of 1.07 ± 0.098.
Test System HS578T BREAST has a surviving fraction of 0.871 ± 0.14.
HMT3552 BREAST showed a surviving fraction of 1.04 ± 0.075.
CCK81 LARGE INTESTINE was tested, and the surviving fraction was 0.751 ± 0.074.
Test System HCC38 BREAST has a surviving fraction of 1.09 ± 0.14.
With G292 BONE the surviving fraction was 1.03 ± 0.026.
With HCC70 BREAST the surviving fraction was 1.15 ± 0.036.

Same assay, conditions: 50 nM; exposure time: 5 days
HMLE3 BREAST showed a surviving fraction of 1.04 ± 0.041.
Test System HS578T BREAST has a surviving fraction of 1.04 ± 0.048.
HMT3552 BREAST gave a surviving fraction of 1.02 ± 0.014.
CCK81 LARGE INTESTINE gave a surviving fraction of 0.65 ± 0.16.
HCC38 BREAST showed a surviving fraction of 0.873 ± 0.13.
In the case of HS57T BREAST, the surviving fraction is reported as 1.03 ± 0.044.
G292 BONE showed a surviving fraction of 1.02 ± 0.029.
With HCC70 BREAST the surviving fraction was 1.05 ± 0.07.

Same assay, conditions: 100 nM; exposure time: 5 days
HMLE3 BREAST showed a surviving fraction of 1.14 ± 0.13.
HS578T BREAST gave a surviving fraction of 1.08 ± 0.013.
HMT3552 BREAST showed a surviving fraction of 1.05 ± 0.083.
With CCK81 LARGE INTESTINE the surviving fraction was 0.536 ± 0.024.
HCC38 BREAST was tested, and the surviving fraction was 0.776 ± 0.097.
Work on HS57T BREAST yielded a surviving fraction of 1.09 ± 0.044.
For G292 BONE, the surviving fraction was 0.999 ± 0.02.
For HCC70 BREAST, the surviving fraction was 1.13 ± 0.044.

Same assay, conditions: 500 nM; exposure time: 5 days
Work on HMLE3 BREAST yielded a surviving fraction of 0.992 ± 0.084.
HS578T BREAST gave a surviving fraction of 0.941 ± 0.052.
In the case of HMT3552 BREAST, the surviving fraction is reported as 0.861 ± 0.12.
For CCK81 LARGE INTESTINE, the surviving fraction was 0.082 ± 0.017.
Test System HCC38 BREAST has a surviving fraction of 0.757 ± 0.13.
Test System HS57T BREAST has a surviving fraction of 0.97 ± 0.04.
For G292 BONE, the surviving fraction was 0.967 ± 0.077.
Test System HCC70 BREAST has a surviving fraction of 0.99 ± 0.047.

Same assay, conditions: 1000 nM; exposure time: 5 days
In the case of HMLE3 BREAST, the surviving fraction is reported as 0.966 ± 0.046.
HS578T BREAST showed a surviving fraction of 1.05 ± 0.15.
Work on HMT3552 BREAST yielded a surviving fraction of 0.944 ± 0.074.
CCK81 LARGE INTESTINE was tested, and the surviving fraction was 0.0653 ± 0.0081.
With HCC38 BREAST the surviving fraction was 0.794 ± 0.19.
HS57T BREAST showed a surviving fraction of 0.933 ± 0.037.
G292 BONE gave a surviving fraction of 0.964 ± 0.015.
In the case of HCC70 BREAST, the surviving fraction is reported as 0.941 ± 0.058.
